Measurements as given in patent publication US8465939B2, “Aging-related circulating particle-associated lipoprotein B oxidase (apoBNOX) and inhibitors thereof” (Nox Technologies, Inc., priority 2010, dated 2013).
“Also recorded” adds a separate entry of the source.

Tests used:
arNOX = conditions: cited from earlier work
apoBNOX = experiment: superoxide dismutase-resistant apoBNOX activity by ferricytochrome c reduction; assay type: biochemical; conditions: for inhibition of apoBNOX: apoBNOX associated with lipoprotein particles
Protocol: Reduction of ferricytochrome c by superoxide was employed as the measure of superoxide dismutase-resistant apoBNOX activity (Mayo, L. A. and Curnutte, J., 1990, Meth. Enzyme. 186: 567-575; Butler, J. et al., 1982, J. Biol. Chem. 257: 10747-10750). The assay consists of 150 μl buffy coats in PBSG buffer (8.06 g NaCl, 0.2 g KCl, 0.18 g Na2HPO4, 0.13 g CaCl2, 0.1 MgCl2, 1.35 g glucose dissolved in 1000 ml deionized water, adjusted to pH 7.4, filtered and stored at 4° C.). Rates were determined using an SLM Aminco DW-2000 spectrophotometer (Milton Roy, Rochester, N.Y.) in the dual wave length mode of operation with continuous measurements over 1 min every 1.5 min. After 45 min, test compounds were added and the reaction was continued for an additional 45 min. After 45 min, a millimolar extinction coefficient of […] was used for reduced ferricytochrome c.
arNOX activity was assayed from measurements of superoxide production based on a standard method where reduction of ferricytochrome c was monitored from the increase in absorbance at 550 nm with reference at 540 nm (Butler et al., 1982). As a further check for the specificity of the apoBNOX activity, 60 units of superoxide dismutase (SOD) were added near the end of the assay to ascertain that the rate returned to base line. Rates were determined over 1 min at intervals of 1.5 min using a SLM Aminco DW 2000 spectrophotometer (Milton Roy, Rochester, N.Y.) in the dual wavelength mode of operation. An extinction coefficient of 19.1 mM^−1 cm^−1 was used for reduced ferricytochrome c.

recombinant arNOX SF2 = molecular target: T1, recombinant arNOX SF2 (Homo sapiens, UniProt Q99805, F637E); experiment: Lipid oxidation catalyzed by H2O2 formed from recombinant arNOX-generated superoxide (SF2); assay type: biochemical; conditions: SF2 + lecithin + SOD + inhibitor, incubated 2 h; without inhibitor 0.12, without SOD 0.06
T1 construct: made in house; host or cells: Escherichia coli BL21 (DE3), pET11a
From the text: FIG. 4 illustrates the role of apoBNOX in the oxidation of the apoB protein associated with low density lipoprotein particles and the recognition of the oxidized LDL by macrophages, resulting in the formation of foam cells leading to fatty streaks and atherogenic plaques. In this scheme, the apoBNOX binds selectively to lipoprotein particle-associated apoB and withdraws electrons to form superoxide. The superoxide thus generated is converted to hydrogen peroxide by the action of superoxide dismutase. The hydrogen peroxide thus generated attacks lipids (particularly phosphatidylcholine) of the low density lipoprotein particles to form reactive lipid peroxides that then attack key lysine residues in the apoB. Evidence that superoxide generated by arNOX when converted to hydrogen peroxide is capable of oxidizing phosphatidylcholine is given by the data of Table 2.

[1] = Hydrolysis and absorption in rats; assay type: in vivo
From the text: (§1) This last characteristic might be problematic if hydroxytyrosol or tyrosol are pretended to be used in fat-based food products or supplements. Oxidation of hydroxytyrosol and tyrosol clearly affect the stability and preservation of both compounds. The hydroxytyrosol and tyrosol derivatives presented in this invention avoid these two problems. The hydroxyl groups on these derivatives are protected from oxidation by preparing hydroxytyrosol or tyrosol fatty acid esters. When compared to hydroxytyrosol and tyrosol, the hydroxytyrosol and tyrosol fatty acid esters are much more resistant against oxidation. At the same time, depending on the length of the fatty acid chain of the fatty acid esters, their solubility in fat-based food products will be increased. Hydroxytyrosol or tyrosol esters with a wide range of solubilities can be prepared, from totally water-soluble hydroxytyrosol or tyrosol derivatives when acetic acid is used in the formation of the ester to totally oil-soluble hydroxytyrosol or tyrosol derivatives when oleic acid is used in the formation of the ester. The hydroxytyrosol and tyrosol derivatives are hydrolyse in the intestinal tract of rats to their two components, hydroxytyrosol or tyrosol and the fatty acid. […] This implies that, after their hydrolysis, mentioned fatty acid esters can act as antioxidants to reduce or ameliorate diseases with an oxidative stress origin.

[2] = Hydrophilicity / solubility; assay type: physicochemical
From the text: as §1

Sensitivity to oxidation = assay type: physicochemical
From the text: as §1

Compound | inhibition of arNOX activity of aging cells (arNOX) | inhibition of apoBNOX (apoBNOX) | other results
COC1=C(OC)C(=O)C(C/C=C(\C)CC/C=C(\C)CC/C=C(\C)CC/C=C(\C)CC/C=C(\C)CC/C=C(\C)CC/C=C(\C)CCC=C(C)C)=C(C)C1=O [CoQ8] | inhibited | relatively ineffective | 
COC1=C(OC)C(=O)C(C/C=C(\C)CC/C=C(\C)CC/C=C(\C)CC/C=C(\C)CC/C=C(\C)CC/C=C(\C)CC/C=C(\C)CC/C=C(\C)CCC=C(C)C)=C(C)C1=O [CoQ9] | inhibited | relatively ineffective | 
COC1=C(OC)C(=O)C(C/C=C(\C)CC/C=C(\C)CC/C=C(\C)CC/C=C(\C)CC/C=C(\C)CC/C=C(\C)CC/C=C(\C)CC/C=C(\C)CC/C=C(\C)CCC=C(C)C)=C(C)C1=O [CoQ, coenzyme Q10] | inhibited | resist inhibition | Lipid oxidation, Relative units (recombinant arNOX SF2): 0.06 cm; inhibition of apoBNOX (apoBNOX; listed as CoQ10): relatively ineffective
OCCc1ccc(O)c(O)c1 [Hydroxytyrosol, hydroxytyrosol] |  |  | absorption ([1]; rats, after hydrolysis of the esters, detected in plasma and cerebrospinal fluid): rapidly absorbed; hydrophilicity / solubility [2]: hydrophilic
OCCc1ccc(O)cc1 [Tyrosol, 4-hydroxyphenethyl alcohol] |  |  | sensitivity to oxidation (Sensitivity to oxidation): sensitive to oxidation; absorption ([1]; rat, in vivo): rapidly absorbed; hydrophilicity / solubility [2]: hydrophilic; apoBNOX activity, % inhibition (apoBNOX; 100 μM tyrosol): 70%
O=c1cc(-c2ccc(O)cc2)oc2cc(O)cc(O)c12 [apigenin] |  | resist inhibition | 
superoxide dismutase |  | resist inhibition; also recorded: resistant to inhibition | 
